≈ marks a conversion by molar mass, not a printed value. Where “and” joins values, the source holds several entries; their conditions need not be identical. Equal values may be shown once. Read-outs that look alike come from different tables or passages of the source.
Tests used:
Experiment in all cases: in vitro antibacterial MIC, agar plate dilution
Type in all cases: cell-based
[1] = system: Pseudomonas aeruginosa K 84-16; conditions: Pseudomonas aeruginosa, K8416, 18 h, 35° C., read-out: MIC
Procedure, shortened: (§1)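 Agar plate dilution on Mueller-Hinton agar, inoculum about 10^4 CFU per spot applied with a Steers replicator. MIC (mcg/ml) is the lowest compound concentration preventing visible growth after 18 h at 35 °C.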

[2] = system: Proteus rettgeri IO 83-21; conditions: Providencia rettgeri, IO8321, 18 h, 35° C., read-out: MIC
Procedure, shortened: as §1

[3] = system: Morganella morganii CMC 84-37; conditions: 18 hours, 35° C.
Procedure, shortened: as §1

[4] = system: Pseudomonas aeruginosa CMC 83-20; conditions: Pseudomonas aeruginosa, CMC8320, 18 h, 35° C., read-out: MIC
Procedure, shortened: as §1

[5] = system: Staphylococcus aureus VGH 84-45; conditions: 35° C.
Procedure, shortened: as §1

[6] = system: Staphylococcus aureus K 82-26; conditions: Staphylococcus aureus, K8226, 18 h, 35° C., read-out: MIC
Procedure, shortened: as §1

[7] = system: Serratia marcescens IO 83-63; conditions: IO8363, 18 hours, 35° C.
Procedure, shortened: as §1

[8] = system: Proteus rettgeri CMC 84-41; conditions: Providencia rettgeri, CMC8441, 18 h, 35° C., read-out: MIC
Procedure, shortened: as §1

[9] = system: Staphylococcus aureus VGH 84-47; conditions: Staphylococcus aureus, VGH8447, 18 h, 35° C., read-out: MIC
Procedure, shortened: as §1

[10] = system: Pseudomonas aeruginosa VGH 84-4; conditions: 35° C.
Procedure, shortened: as §1

[11] = system: Morganella morganii CMC 84-38; conditions: 35° C.
Procedure, shortened: as §1

[12] = system: Serratia marcescens CMC 83-74; conditions: Serratia marcescens, CMC8374, 18 h, 35° C., read-out: MIC
Procedure, shortened: as §1

[13] = system: Escherichia coli VGH 84-19; conditions: Escherichia coli, VGH8419, 18 h, 35° C., read-out: MIC
Procedure, shortened: as §1

[14] = system: Streptococcus faecalis VGH 84-69; conditions: Enterococcus faecalis, VGH8469, 18 h, 35° C., read-out: MIC
Procedure, shortened: as §1

[15] = system: Klebsiella pneumoniae MOR 84-24; conditions: Klebsiella pneumoniae, MOR8424, 18 h, 35° C., read-out: MIC
Procedure, shortened: as §1

[16] = system: Escherichia coli CMC 84-50; conditions: Escherichia coli, CMC8450, 18 h, 35° C., read-out: MIC
Procedure, shortened: as §1

[17] = system: Escherichia coli CMC 84-11; conditions: Escherichia coli, CMC8411, 18 h, 35° C., read-out: MIC
Procedure, shortened: as §1

Citrobacter div. K 82-24 = conditions: Citrobacter, DIV.K8224, 18 h, 35° C., read-out: MIC
Procedure, shortened: as §1

[18] = system: Klebsiella pneumoniae CMC 84-31; conditions: Klebsiella pneumoniae, CMC8431, 18 h, 35° C., read-out: MIC
Procedure, shortened: as §1

[19] = system: Serratia marcescens MOR 84-41; conditions: Serratia marcescens, MOR8441, 18 h, 35° C., read-out: MIC
Procedure, shortened: as §1

[20] = system: Enterobacter cloacae VGH 84-39; conditions: Enterobacter cloacae, VGH8439, 18 h, 35° C., read-out: MIC
Procedure, shortened: as §1

[21] = system: Streptococcus faecalis CMC 83-120; conditions: Enterococcus faecalis, CMC83120, 18 h, 35° C., read-out: MIC
Procedure, shortened: as §1

[22] = system: Staphylococcus aureus CMC 83-131; conditions: Staphylococcus aureus, CMC83131, 18 h, 35° C., read-out: MIC
Procedure, shortened: as §1

[23] = system: Klebsiella pneumoniae IO 83-5; conditions: Klebsiella pneumoniae, IO835, 18 h, 35° C., read-out: MIC
Procedure, shortened: as §1

[24] = system: Enterobacter cloacae MOR 84-30; conditions: 35° C.
Procedure, shortened: as §1

[25] = system: Serratia marcescens K 84-18; conditions: Serratia marcescens, K8418, 18 h, 35° C., read-out: MIC
Procedure, shortened: as §1

[26] = system: Escherichia coli ATCC 25922; conditions: 35° C.
Procedure, shortened: as §1

[27] = system: Serratia marcescens VGH 84-30; conditions: Serratia marcescens, VGH8430, 18 h, 35° C., read-out: MIC
Procedure, shortened: as §1

[28] = system: Pseudomonas aeruginosa LL-1244; conditions: Pseudomonas aeruginosa, LL1244, 18 h, 35° C., read-out: MIC
Procedure, shortened: as §1

Escherichia coli LL 311 = conditions: Escherichia coli, LL311, 18 h, 35° C., read-out: MIC
Procedure, shortened: as §1

[29] = system: Staphylococcus aureus ATTC 29213; conditions: 35° C.
Procedure, shortened: as §1

[30] = system: Streptococcus faecalis UCI 85-19; conditions: Enterococcus faecalis, UCI8519, 18 h, 35° C., read-out: MIC
Procedure, shortened: as §1

SMILES | MIC [1] [µg/mL] | MIC [2] [µg/mL] | MIC [4] [µg/mL] | MIC [6] [µg/mL] | MIC [7] [µg/mL] | MIC [8] [µg/mL] | MIC [9] [µg/mL] | MIC [12] [µg/mL] | MIC [13] [µg/mL] | MIC [14] [µg/mL] | MIC [15] [µg/mL] | MIC [16] [µg/mL] | MIC [17] [µg/mL] | MIC (Citrobacter div. K 82-24) [µg/mL] | MIC [18] [µg/mL] | MIC [19] [µg/mL] | MIC [20] [µg/mL] | MIC [21] [µg/mL] | MIC [22] [µg/mL] | MIC [23] [µg/mL] | also measured
O=C(O)c1cn(C2CC2)c2cc(N3CCNC(c4ccco4)C3)c(F)cc2c1=O (centres unmarked) [Example 62, 1-Cyclopropyl-6-fluoro-7-[3-(2-furanvl)-1-piperazinyl]-1,4-dihydro-4-oxo-3-quinolinecarboxylic acid] | 8 (≈ 20.1 µM) | 0.25 (≈ 0.629 µM) | 8 (≈ 20.1 µM) | 0.06 (≈ 0.151 µM) | 1 (≈ 2.52 µM) | 0.06 (≈ 0.151 µM) | 0.03 (≈ 0.0755 µM) | 16 (≈ 40.3 µM) | 0.06 (≈ 0.151 µM) | 0.5 (≈ 1.26 µM) | 0.25 (≈ 0.629 µM) | 0.12 (≈ 0.302 µM) | 0.03 (≈ 0.0755 µM) | 0.12 (≈ 0.302 µM) | 0.12 (≈ 0.302 µM) | 0.5 (≈ 1.26 µM) | 0.12 (≈ 0.302 µM) | 1 (≈ 2.52 µM) | 0.25 (≈ 0.629 µM) | 0.25 (≈ 0.629 µM) | MIC [3]: 0.06 µg/mL (≈ 0.151 µM); MIC ([5]; 18 hours): 0.015 µg/mL (≈ 0.0377 µM); MIC ([10]; 18 hours): 1 µg/mL (≈ 2.52 µM); MIC ([11]; 18 hours): 0.25 µg/mL (≈ 0.629 µM); MIC ([24]; 18 hours): 1 µg/mL (≈ 2.52 µM); MIC [25]: 0.25 µg/mL (≈ 0.629 µM); MIC ([26]; 18 hours): 0.03 µg/mL and 0.06 µg/mL
CCn1cc(C(=O)O)c(=O)c2cc(F)c(N3CCN(C)C(c4ccn(C)n4)C3)cc21 (centres unmarked) [Example 109, 1-Ethyl-6-fluoro-1,4-dihydro-7-[4-methyl-3-(1-methyl-1H-pyrazol-3-yl) -1-piperazinyl]-4-oxo-3-quinolinecarboxylic acid] | > 16 | > 16 | > 16 | > 16 | > 16 | 32 (≈ 77.4 µM) | 2 (≈ 4.84 µM) | > 16 | > 16 | > 16 | > 16 | > 16 | 16 (≈ 38.7 µM) | > 16 | > 16 | > 16 | > 16 | > 16 | 2 (≈ 4.84 µM) | > 16 | MIC ([5]; Staphylococcus aureus, VGH8445, 18 h, read-out: MIC): 0.5 µg/mL (≈ 1.21 µM); MIC [27]: > 128 µg/mL; MIC ([10]; Pseudomonas aeruginosa, VGH844, 18 h, read-out: MIC): > 128 µg/mL; MIC [28]: > 128 µg/mL; MIC ([11]; Morganella morganii, CMC8438, 18 h, read-out: MIC): > 16 µg/mL; MIC (Escherichia coli LL 311): 8 µg/mL (≈ 19.3 µM); MIC ([24]; Enterobacter cloacae, MOR8430, 18 h, read-out: MIC): > 16 µg/mL; MIC ([29]; 18 hours): 1 µg/mL (≈ 2.42 µM); MIC ([29]; Staphylococcus aureus, ATTC29213, 18 h, read-out: MIC): 0.5 µg/mL (≈ 1.21 µM); MIC [30]: 16 µg/mL (≈ 38.7 µM); MIC [25]: 32 µg/mL (≈ 77.4 µM); MIC ([26]; Escherichia coli, ATCC25922, 18 h, read-out: MIC): 8 µg/mL (≈ 19.3 µM)
